Earlier results in US20150086616A1, “METHOD FOR THE PREVENTION AND TREATMENT OF ALZHEIMER'S DISEASE” (priority 2013, published 2015).

How the values were obtained:
[1] = tested on: cyclooxygenase
[2] = tested on: Alzheimer's disease; details: for efficacy of oral NSAID as treatment of Alzheimer's disease: oral administration
[3] = after multiple oral doses of ibuprofen
[4] = highly lipophilic drugs
[5] = ophthalmic

crossing of the blood brain barrier [4]	Compound	direct cyclooxygenase inhibition [1]	efficacy of oral NSAID as treatment of Alzheimer's disease [2]	other results
	C[C@H](C(=O)O)c1ccc(-c2ccccc2)c(F)c1 (single isomer, unassigned) [S-enantiomer of flurbiprofen]	is a cyclooxygenase inhibitor		
readily cross the blood brain barrier	CC(C)Cc1ccc(C(C)C(=O)O)cc1 (stereo not drawn) [ibuprofen]		not an effective treatment	brain concentration [3]: 0.4 µg/g; concentration in fat [3]: 58.4 μg/g tissue
readily cross the blood brain barrier	CC(C(=O)O)c1ccc(-c2ccccc2)c(F)c1 (stereo not drawn) [flurbiprofen]		not an effective treatment	
readily cross the blood brain barrier	O=C(O)Cc1ccccc1Nc1c(Cl)cccc1Cl [diclofenac]			anti-inflammatory action compared with flurbiprofen [5]: more anti-inflammatory action; burning sensation compared with flurbiprofen [5]: less burning sensation
	C[C@@H](C(=O)O)c1ccc(-c2ccccc2)c(F)c1 [R-flurbiprofen]	devoid of any direct cyclooxygenase inhibition		phase III clinical trial for the treatment of Alzheimer's disease ([2]; phase III clinical trial): failed
